“Also recorded” adds a separate entry of the source.
How the values were obtained:
[1] = system: 13B2 hTERT, CT5.3 hTERT, HCA2 hTERT, MCF-7/6 and 4T1-Luc cells; assay: 3D CellTiter-Glo Cell Viability Assay (spheroids); type: cell-based; conditions: 3D spheroids; up to 100 μM; 48 h
Method: The half maximal inhibitory concentration (IC50) of A1 was evaluated using a CellTiter-Glo® 2.0 Cell Viability Assay (cat. no. G9243, Promega) and a CellTiter-Glo® 3D Cell Viability Assay (cat. no. G9681, Promega). 13B2 hTERT cells (2D: 2×10^5, 3D: 8×10^4) were plated in each well of a Nunc™ MicroWell™ 96-Well, Nunclon Delta-Treated, Flat-Bottom Microplate (cat. no. 167008, Thermo Fisher Scientific) for 2D experiments or 96-well ULA plate (cat. no. MS-9096UZ, S-bio) in a volume of 90 μL/well. A1 was serially diluted in the appropriate medium to 10× the final concentrations. For each treatment condition, 10 μL was added to 3 replicate wells (final concentrations ranging from 1-100 μM) and plates were incubated for 48 h.
The CellTiter-Glo Cell Viability Assay was performed according to manufacturer's instructions. Briefly, the plates and the CellTiter-Glo® Reagent were equilibrated to room temperature (RT). The CellTiter-Glo® Reagent was added to each well in a 1:1 (v/v) ratio. For 2D experiments, cell lysis was induced by placing the plates on an orbital shaker for 2 min, followed by stabilization of the luminescent signal for 10 min. […] Afterwards, the luminescence was measured using a Synergy™ HTX Multi-Mode Microplate Reader (BioTek). The IC50 value was determined using the Graphpad Prism software. […]

[2] = system: MCF-7/6 breast cancer cells; assay: AFM spheroid stiffness, MCF-7/6 breast cancer cells; type: cell-based, human; conditions: 48 h
Method: (§1) Selectivity for CAFs with respect to normal fibroblasts and other cell types was assessed by performing an identical experiment with normal fibroblasts and other cell types, where compounds were considered selective for CAFs if they only modulate CAF stiffness.
(§2) U-shaped, 384-well ULA plates (cat. no. MS-9384UZ, S-bio) were seeded with a suspension of cell-specific culture media with cells. Cells were allowed to form spheroids for an appropriate time under treatment conditions before use in experiments. Cell culture dishes (cat. no. 734-2814, VWR) were filled with collagen gel and placed at 37° C. for an appropriate time to allow solidification. For each condition, spheroids were pooled in one cell culture dish. The medium was removed (stored at 37° C.) to promote attachment of the bottom of each spheroid to the collagen gel. The cell culture dishes were incubated at 37° C. After the incubation period, the stored medium was carefully (prevent detachment of spheroids) added to the dishes.
(§3) Mechanical measurements were performed using an atomic force microscope. To indent the spheroids an in-house made colloidal probe was used. Force curves were collected using an appropriate setpoint and probe speed (depending on the stiffness of the spheroids). On each spheroid multiple force curves were collected. Collected curves were then processed using the JPK DP software. Young's modulus was extracted from the force curves. All experiments were performed in biological triplicate.
(§4) To generate 3D cultures mimicking the complexity and pathophysiology of in vivo tumors, spheroids were used (cfr. point 4). Spheroids are considered to better simulate cellular heterogeneity, nutrient and oxygen gradients, cell-cell interactions, cell-matrix interactions, gene expression profiles, stromal interactions, therapeutic responses, multicellular resistance, drug penetration and anti-apoptotic signaling.

[3] = system: CT5.3 hTERT colon CAFs; assay: AFM spheroid stiffness, CT5.3 hTERT colon CAFs; type: cell-based, human; conditions: 1 μM, 48 h
From the text: (§5) It is well established that an increased tumor and ECM stiffness is associated with a negative prognosis as it promotes tumor growth, progression, therapy resistance, immunosuppression and metastasis. Stiffness is chiefly regulated by the action of the CAFs in the TME. Stiffness modulation is, therefore, a fitting read-out of activity in a screen for CAF modulators. To assess stiffness modulation, the stiffness of spheroids of CAF cells treated with test compounds was interrogated using atomic force microscopy (AFM) indentation and compared with untreated cells. AFM measurement of the stiffness (elasticity) of cells and spheroids is a technique well-known to those skilled in the art. AFM measures the force required to create a given deflection, this read-out is also known as the Young's modulus. AFM is widely used in biology and cancer research: altered physicochemical properties of live cells serve as a read-out of altered complex physiological processes.
U-shaped, 384-well ULA plates (cat. no. MS-9384UZ, S-bio) were seeded with a suspension of cell-specific culture media with cells. Cells were allowed to form spheroids for an appropriate time under treatment conditions before use in experiments. Cell culture dishes (cat. no. 734-2814, VWR) were filled with collagen gel and placed at 37° C. for an appropriate time to allow solidification. […]

[4] = system: primary human atrial fibroblasts; assay: AFM spheroid stiffness, primary human atrial fibroblasts; type: cell-based; conditions: 1 μM, 48 h
Method: as §1, §2, §3, §4

[5] = system: CAF03 glioblastoma CAFs; assay: AFM spheroid stiffness, CAF03 glioblastoma CAFs; type: cell-based; conditions: 1 μM, 48 h
From the text: as §5, §2, §3, §4

[6] = system: primary glioblastoma (GBM) cells; assay: AFM spheroid stiffness, primary glioblastoma cells; type: cell-based, human; conditions: 48 h
Method: as §1, §2, §3, §4

[7] = system: 4T1-Luc aggregates; assay: Chick heart invasion (CHI) assay with 4T1-Luc aggregates; type: cell-based, mouse; conditions: 1 μM, in duplo
Method: Chick heart invasion assays were performed as described earlier (Bracke et al. 2014). Precultured heart fragments of 9-day-old chicken embryos were confronted with MCF-7/6 aggregates on top of a semi-solid agar at 37° C. overnight, after which the confronting pairs were cultured in suspension for 8 days at 37° C., 10% CO2 in presence or absence of a test compound (in duplo). This procedure can also be performed with aggregates of 4T1-Luc cells, for which the suspension culture of the confronting pairs is performed for 3.5 days. All compounds were evaluated at 1 μM and 100 nM; depending on the outcome higher or lower concentrations were subsequently evaluated. […] Sections of the confrontation cultures were stained with hematoxylin-eosin are blinded and scored by a trained person (Bracke et al., 2014).
In the chick heart invasion assay cancer cells are confronted with a fragment of normal tissue, so as not to neglect the contribution of the host tissue in the micro-ecosystem that governs tumor behavior. […] After eight days for MCF-7/6, or another period depending on the cell type, the interaction between the cancer cells and the PHF is evaluated histologically and classified along a 5-grades subjective scale (Bracke et al. 2014). […] Compounds that inhibit invasion of confronting cancer cells i.e. from III/IV to 0/I/II, are determined as anti-invasive. […]

Row | SMILES | response of cells cultured as spheroids (viability) [1] | spheroid stiffness ([2]; 1 μM) | spheroid stiffness ([2]; 0.03-3 μM) | spheroid stiffness [3] | spheroid stiffness [4] | spheroid stiffness [5] | spheroid stiffness ([6]; 1 μM) | spheroid stiffness ([6]; 0.03-3 μM) | Histological invasion grade [7]
1 | COc1cc(C(=O)/C=C/c2ccc(F)cc2)cc(OC)c1OC [Compound A1, 3-(4-Fluorophenyl)-1-(3,4,5-trimethoxyphenyl)prop2-en-1-one] | no response | no effect | not result in a change | decreased | did not alter; also recorded: no effect | decreased; also recorded: active | no effect | nor did it change | I/II-III
2 | COc1cc2oc(-c3ccc(F)cc3)cc(=O)c2c(OC)c1OC [Compound B1, 2-(4-Fluorophenyl)-5,6,7-trimethoxy-4H-chromen-4-one] | no response | no effect |  | decreased | did not alter; also recorded: no effect | active | no effect |  | II/II
